The results in this text go back to patent publication US9771378B2 (Denali Therapeutics, Inc., priority 2014, dated 2017).

The IC50 is the concentration that inhibits the measured activity by half.

Where only a bound is given, the exact number is not on record here.

The test has as its system Aβ42 (human neuroglioma H4 cells expressing human wild type APP751). The experiment in a line: In vitro cell screening assay with sandwich ELISA quantification of Aβ42 peptide. Particulars: H4 cells stably expressing human wild type APP751; Pro293 chemically defined medium; compounds 0.003-10 μM; incubated overnight (16-18 h); supernatant Aβ42 by sandwich ELISA; normalized to DMSO and DAPT; read-out: Aβ42 H4 Prot Fre IC50. The format is cell-based. In short, it runs like this:
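H4 neuroglioma cells stably expressing human wild-type APP751 were treated in Pro293 medium with compounds (0.003-10 μM, 0.33% DMSO) for 16-18 h at 37° C. Secreted Aβ42 measured by sandwich ELISA (C-terminal capture, 4G8-HRP detection, TMB, 450 nm). IC50 by variable-slope sigmoidal regression on percent of DMSO control.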
For orientation: An ELISA detects its analyte on a solid surface through an enzyme-linked reagent.
Turning to `COc1cc(Nc2ncc3c(n2)N(C)C(c2cc(F)c(F)c(F)c2)CO3)ccc1-c1ccnc(C)c1` (single isomer, unassigned; (+)) [Example 39A], the IC50 was 41 nM. Consider `Cc1cn(-c2ccc(Nc3ncc4c(n3)N(C)C(c3ccccc3)CO4)cc2F)cn1` (single isomer, unassigned; (-)) [Example 25B], for which the half-inhibitory concentration (IC50) worked out at 334 nM. The same measure for `COc1nc(Nc2ncc3c(n2)N(C)C(c2ccccc2C)CO3)ccc1-n1cnc(C)c1` (single isomer, unassigned; (-)) [Example 180A]: > 3000 nM; for `COc1cc(Nc2ncc3c(n2)N(C)C(c2cc(F)cc(F)c2)CO3)ccc1-n1cnc(Cl)c1` (single isomer, unassigned; (-)) [Example 204A]: 433 nM. With `Cc1cn(-c2ccc(Nc3ncc4c(n3)N(C)C(c3cc(F)cc(F)c3)CO4)cc2)cn1` (racemic) [Example 23], the half-maximal inhibitory concentration (IC50) worked out at 37.9 nM. Under `Cc1cc(-c2ccc(Nc3ncc4c(n3)N(C)C(c3ccccc3C)CO4)cc2F)ccn1` (single isomer, unassigned; (-)) [Example 32A] stands 888 nM; under `Cc1cc(-c2ccc(Nc3ncc4c(n3)N(C)C(c3ccccc3C)CO4)cc2F)ccn1` (racemic) [Example 32], 168 nM.

As to `Cc1cn(-c2ccc(Nc3ncc4c(n3)N(C)C(c3ccccc3Cl)CO4)cc2F)cn1` (single isomer, unassigned; (+)) [Example 67A], the IC50 is 124 nM. As to `Cc1cc(-c2ccc(Nc3ncc4c(n3)N(C)C(c3ccccc3)CO4)cc2)ccn1` (racemic) [Example 24], the IC50 is 155 nM.
